Data on 27 compounds can be found in US9353051B2, “Antiviral drugs for treatment or prevention of dengue infection” (Siga Technologies Inc., priority 2007, dated 2016).

For this test, the system named is Dengue-2 (Strain New Guinea C). As to the kind of experiment: viral yield assay against Dengue-2 in Vero cells. Type of test: cell-based. The note with it: Dengue virus; Vero cells, MOI 0.1, harvested 48 hours post infection; read-out: Activity (anti-dengue 2 viral activity, EC50). The procedure:
Compounds that were active in the primary screen were also tested for activity in viral yield assays. […] Vero cells in 12-well plates were infected with dengue-2 virus at a multiplicity of infection (MOI) of 0.1, treated with compound (or DMSO as a control), incubated at 37° C., harvested 48 hours post infection and titered on Vero cells as described above. The EC50 was calculated through ExcelFit. Those compounds with activity below 1 μM are indicated with “A”, those with activity between 1 and 10 μM are indicated with “B”, those with activity between 10 and 25 μM with “C”, and those with activity above 25 μM are indicated with “D”.
Broadly, the EC50 is the concentration at which the effect is half-maximal. As for `O=C(Cn1cnc2ccccc2c1=O)Nc1ccc(S(=O)(=O)NCc2ccco2)cc1` [Compound 41, N-{4-[(Furan-2-ylmethyl)-sulfamoyl]-phenyl}-2-(4-oxo-4H-quinazolin-3-yl)-acetamide], the EC50 is more than 25 µM.

With `CC(C)N(C)S(=O)(=O)c1ccc(NC(=O)Cn2cnc3ccccc3c2=O)cc1` [Compound 42, N-[4-(Isopropyl-methyl-sulfamoyl)-phenyl]-2-(4-oxo-4H-quinazolin-3-yl)-acetamide], the EC50 is more than 25 µM. To `CC(NS(=O)(=O)c1ccc(NC(=O)Cn2cnc3ccccc3c2=O)cc1)C1CC2CCC1C2` (stereo not drawn) [Compound 43, N-[4-(1-Bicyclo[2.2.1]hept-2-yl-ethylsulfamoyl)-phenyl]-2-(4-oxo-4H-quinazolin-3-yl)-acetamide] belongs more than 25 µM; to `CC(C)NS(=O)(=O)c1ccc(NC(=O)Cn2cnc3ccccc3c2=O)cc1` [Compound 44, N-(4-Isopropyl-sulfamoyl-phenyl)-2-(4-oxo-4H-quinazolin-3-yl)-acetamide], more than 25 µM. Take `CN1CCN(S(=O)(=O)c2ccc(NC(=O)Cn3cnc4ccccc4c3=O)cc2)CC1` [Compound 45, N-[4-(4-Methyl-piperazine-1-sulfonyl)-phenyl]-2-(4-oxo-4H-quinazolin-3-yl)-acetamide]: the EC50 is more than 25 µM.

Take `CNS(=O)(=O)c1ccc(NC(=O)Cn2cnc3ccccc3c2=O)cc1` [Compound 46, N-(4-Methylsulfamoyl-phenyl)-2-(4-oxo-4H-quinazolin-3-yl)-acetamide]: the EC50 was more than 25 µM. Take `CC1CCN(S(=O)(=O)c2ccc(NC(=O)Cn3cnc4ccccc4c3=O)cc2)CC1` [Compound 47, N-[4-(4-Methyl-piperidine-1-sulfonyl)-phenyl]-2-(4-oxo-4H-quinazolin-3-yl)-acetamide]: the EC50 is more than 25 µM. To `O=C(Cn1cnc2ccccc2c1=O)Nc1ccc(S(=O)(=O)NC2CCS(=O)(=O)C2)cc1` (stereo not drawn) [Compound 48, N-[4-(1,1-Dioxo-tetrahydro-1lambda*6*- thiophen-3-ylsulfamoyl)-phenyl]-2-(4-oxo-4H-quinazolin-3-yl)-acetamide] belongs more than 25 µM. With `CN(C1CCCCC1)S(=O)(=O)c1ccc(NC(=O)Cn2cnc3ccccc3c2=O)cc1` [Compound 49, N-[4-(Cyclohexyl-methyl-sulfamoyl)-phenyl]-2-(4-oxo-4H-quinazolin-3-yl)-acetamide], the EC50 was more than 25 µM.

Take `CN(C)S(=O)(=O)c1ccc(NC(=O)Cn2cnc3ccccc3c2=O)cc1` [Compound 50, N-(4-Dimethylsulfamoyl-phenyl)-2-(4-oxo-4H-quinazolin-3-yl)-acetamide]: the EC50 is more than 25 µM. Regarding `O=C(Cn1cnc2ccccc2c1=O)Nc1ccc(S(=O)(=O)N2CCCCCC2)cc1` [Compound 51, N-[4-(Azepane-1-sulfonyl)-phenyl]-2-(4-oxo-4H-quinazolin-3-yl)-acetamide], the EC50 is more than 25 µM. Then `O=C(Cn1cnc2ccccc2c1=O)Nc1ccc(S(=O)(=O)N2CCCCC2)cc1` [Compound 52, 2-(4-Oxo-4H-quinazolin-3-yl)-N-[4-(piperidine-1-sulfonyl)-phenyl]-acetamide], with more than 25 µM; and `CC1CCCN(S(=O)(=O)c2ccc(NC(=O)Cn3cnc4ccccc4c3=O)cc2)C1` (stereo not drawn) [Compound 53, N-[4-(3-Methyl-piperidine-1-sulfonyl)-phenyl]-2-(4-oxo-4H-quinazolin-3-yl)-acetamide], with more than 25 µM; and `COC(=O)CNS(=O)(=O)c1ccc(NC(=O)Cn2cnc3ccccc3c2=O)cc1` [Compound 54, {4-[2-(4-Oxo-4H-quinazolin-3-yl)-acetylamino]-benzene-sulfonylamino}-acetic acid methyl ester], with more than 25 µM. To `CC(C)(C)NS(=O)(=O)c1cccc(NC(=O)Cn2cnc3ccccc3c2=O)c1` [Compound 55, N-(3-tert-Butylsulfamoyl-phenyl)-2-(4-oxo-4H-quinazolin-3-yl)-acetamide] belongs more than 25 µM. Then `CCN(CC)S(=O)(=O)c1ccc(NC(=O)Cn2cnc3sc(-c4ccccc4)cc3c2=O)cc1` [Compound 56, N-(4-Diethylsulfamoyl-phenyl)-2-(4-oxo-6-phenyl-4H-thieno[2,3-d]pyrimidin-3-yl)-acetamide], with more than 25 µM. Consider `CCN(CC)S(=O)(=O)c1ccc(NC(=O)Cn2cnc3cc(F)ccc3c2=O)cc1` [Compound 57, N-(4-Diethylsulfamoyl-phenyl)-2-(7-fluoro-4-oxo-4H-quinazolin-3-yl)-acetamide], for which the EC50 was more than 25 µM. With `CCN(CC)S(=O)(=O)c1ccc(NC(=O)Cn2cnc3cc(OC)c(OC)cc3c2=O)cc1` [Compound 58, N-(4-Diethylsulfamoyl-phenyl)-2-(6,7-dimethoxy-4-oxo-4H-quinazolin-3-yl)-acetamicle], the concentration giving a half-maximal response (EC50) is more than 25 µM. To `CCN(CC)S(=O)(=O)c1ccc(NC(=O)Cn2cnc3scc(-c4ccccc4)c3c2=O)cc1` [Compound 59, N-(4-Diethylsulfamoyl-phenyl)-2-(4-oxo-5-phenyl-4H-thieno[2,3-d]pyrimidin-3-yl)-acetamide] belongs more than 25 µM; to `CCN(CC)S(=O)(=O)c1ccc(NC(=O)Cn2cnc3cc(NC)c([N+](=O)[O-])cc3c2=O)cc1` [Compound 60, N-(4-Diethylsulfamoyl-phenyl)-2-(7-methylamino-6-nitro-4-oxo-4H-quinazolin-3-yl)-acetamide], more than 25 µM; to `CCN(CC)S(=O)(=O)c1ccc(NC(=O)Cn2cnc3cc(-c4ccc(OC)cc4)sc3c2=O)cc1` [Compound 61, N-(4-Diethylsulfamoyl-phenyl)-2-[6-(4-methoxy-phenyl)-4-oxo-4H-thieno[3,2-d]pyrimidin-3-yl]-acetamide], more than 25 µM. Then `Cc1cccc2c(=O)n(CC(=O)Nc3ccc(S(=O)(=O)N(C)C)cc3)cnc12` [Compound 62, N-(4-Dimethylsulfamoyl-phenyl)-2-(8-methyl-4-oxo-4H-quinazolin-3-yl)-acetamide], with more than 25 µM; and `CCN(CC)S(=O)(=O)c1ccc(NC(=O)CNC(=O)c2cc(C)cc(C)c2)cc1` [Compound 63, N-[(4-Diethylsulfamoyl-phenylcarbamoyl)-methyl]-3,5-dimethyl-benzamide], with more than 25 µM; and `CCN(CC)S(=O)(=O)c1ccc(NC(=O)CSc2nc3ccccc3c(=O)n2CC)cc1` [Compound 64, N-(4-Diethylsulfamoyl-phenyl)-2-(3-ethyl-4-oxo-3,4-dihydro-quinazolin-2-ylsulfanyl)-acetamide], with more than 25 µM.

Take `CCN(CC)S(=O)(=O)c1cccc(NC(=O)Cn2cnc3ccccc3c2=O)c1` [Compound 65, N-(3-Diethylsulfamoyl-phenyl)-2-(4-oxo-4H-quinazolin-3-yl)-acetamide]: the concentration giving a half-maximal response (EC50) is more than 25 µM. As for `CCN(CC)S(=O)(=O)c1ccc(C(=O)OCc2nc3ccccc3c(=O)n2CC(N)=O)cc1` [Compound 66, 4-Diethylsulfamoyl-benzoic acid 3-carbamoylmethyl-4-oxo-3,4-dihydro-quinazolin-2-ylmethyl ester], the EC50 is more than 25 µM.

On to `CCN(CC)S(=O)(=O)c1ccc(C(=O)Nn2cnc3ccccc3c2=O)cc1` [Compound 67, 4-Diethylsulfamoyl-N-(4-oxo-4H-quinazolin-3-yl)-benzamide], for which the EC50 was more than 25 µM.
